Measured values published in patent US11845724B2, “USP30 inhibitors and uses thereof” (Vincere Biosciences, Inc., priority 2019, dated 2023).

biological target: USP30 (Homo sapiens (Human), UniProt Q70CQ3); experiment: Dundee MALDI-TOF mass spectrometry assay (IC50); type: biochemical; conditions: USP30 25 ng/μl, K48-linked diubiquitin 5.6 μM, avg, read-out: Dundee IC50 μM (avg in vitro MS assay)
Protocol: Compounds were tested in a MALDI-TOF assay based on the paper by Ritorto et al. (Ritorto et al. Screening of DUB activity and specificity by MALDI-TOF mass spectrometry. Nat. […] USP30 (25 ng/μl) tested against K48-linked diubiquitin (5.6 μM). USP30 was diluted in a buffer containing 40 mM Tris, 0.01% BSA, 1 mM DTT and K48 in 40 mM Tris, 0.01% BSA. The compounds were pre-incubated with the USP30 for 5 mins at room temp before the K48 dimer addition. The assay mixture was then incubated for 45 mins at room temp. The assay was stopped by the addition of TFA to a final concentration of 2% (v/v). […] Then 250 nl of these solutions were spotted onto an MTP AnchorChip 1,536 TF and this is analysed on the Bruker rapifleX MALDI-TOF.

USP30, sequence (Q70CQ3 whole entry): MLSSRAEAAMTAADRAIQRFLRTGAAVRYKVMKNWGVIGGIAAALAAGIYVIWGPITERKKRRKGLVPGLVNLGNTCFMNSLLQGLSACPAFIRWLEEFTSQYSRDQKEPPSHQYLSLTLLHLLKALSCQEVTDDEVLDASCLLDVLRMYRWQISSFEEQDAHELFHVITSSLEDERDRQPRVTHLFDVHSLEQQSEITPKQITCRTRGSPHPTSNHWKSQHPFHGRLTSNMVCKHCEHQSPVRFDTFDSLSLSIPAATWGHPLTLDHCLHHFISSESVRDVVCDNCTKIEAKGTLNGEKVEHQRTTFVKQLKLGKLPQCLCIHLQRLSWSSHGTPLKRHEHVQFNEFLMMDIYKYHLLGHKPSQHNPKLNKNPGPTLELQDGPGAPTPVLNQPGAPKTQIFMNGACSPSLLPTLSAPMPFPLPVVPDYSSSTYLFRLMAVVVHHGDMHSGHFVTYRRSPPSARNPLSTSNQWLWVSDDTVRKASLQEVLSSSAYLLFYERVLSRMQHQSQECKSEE

Q: With O=C(N[C@@H](Cc1ccccc1)C(=O)Nc1ccc(S(=O)(=O)NC2CCCC2)cc1)c1ccc(F)cc1 [Compound I-8, (S)-N-(1-(4-(N-cyclopentylsulfamoyl)phenylamino)-1-oxo-3-phenylpropan-2-yl)-4-fluorobenzamide] as the molecule, how does the IC50 read?
A: < 0.05 µM

Q: CC[C@@H](C)NS(=O)(=O)c1ccc(NC(=O)[C@H](Cc2ccccc2)NC(=O)c2ccc(F)cc2)cc1 [Compound I-12, N-((S)-1-((4-(N-((R)-sec-butyl)sulfamoyl)phenyl)amino)-1-oxo-3-phenylpropan-2-yl)-4-fluorobenzamide] was tested. Which IC50 did it give?
A: < 0.05 µM

Q: How did the IC50 turn out when CC(C)(C)NS(=O)(=O)c1ccc(NC(=O)[C@H](Cc2ccccc2)NC(=O)c2ccc(F)cc2)s1 [Compound I-63, (S)-N-(1-(5-(N-tert-butylsulfamoyl)thiophen-2-ylamino)-1-oxo-3-phenylpropan-2-yl)-4-fluorobenzamide] was run?
A: 0.05 to 1 µM

Q: Which IC50 does the source give for O=C(N[C@@H](Cc1ccccc1)C(=O)Nc1ccc(S(=O)(=O)NCC2CC2)cc1)c1ccc(F)cc1 [Compound I-9, (S)-N-(1-(4-(N-(cyclopropylmethyl)sulfamoyl)phenylamino)-1-oxo-3-phenylpropan-2-yl)-4-fluorobenzamide] here?
A: < 0.05 µM

Q: CC(C)(C)NS(=O)(=O)c1ccc(NC(=O)[C@H](Cc2ccccc2)NC(=O)c2ccc(F)cc2)cn1 [Compound I-62, (S)-N-(1-(6-(N-tert-butylsulfamoyl)pyridin-3-ylamino)-1-oxo-3-phenylpropan-2-yl)-4-fluorobenzamide] was tested. Which IC50 did it give?
A: < 0.05 µM

Q: How did the IC50 turn out when C[C@@H](NS(=O)(=O)c1ccc(NC(=O)[C@H](Cc2ccccc2)NC(=O)c2ccc(F)cc2)cc1)C1CC1 [Compound I-67, N-((S)-1-(4-(N-((R)-1-cyclopropylethyl)sulfamoyl)phenylamino)-1-oxo-3-phenylpropan-2-yl)-4-fluorobenzamide] was run?
A: < 0.05 µM

Q: Which IC50 does the source give for CC(C)(C)CS(=N)(=O)c1ccc(NC(=O)[C@H](Cc2ccccc2)NC(=O)c2ccc(F)cc2)cc1 (stereo partly drawn) [Compound I-3, N-((2S)-1-(4-(2,2-dimethylpropylsulfonimidoyl)phenylamino)-1-oxo-3-phenylpropan-2-yl)-4-fluorobenzamide] here?
A: > 10 µM

Q: Which IC50 does the source give for CC(C)(C)NS(=O)(=O)c1ccc(NC(=O)C2Cc3ncccc3N2C(=O)c2ccc(F)cc2)cc1 (stereo not shown) [Compound I-54, N-(4-(N-tert-butylsulfamoyl)phenyl)-1-(4-fluorobenzoyl)-2,3-dihydro-1H-pyrrolo[3,2-b]pyridine-2-carboxamide] here?
A: > 1 µM

Q: For CC(C)(C)NS(=O)(=O)c1ccc(NC(=O)[C@H](Cc2ccccc2)NC(=O)c2ccc(F)cc2)nc1 [Compound I-61, (S)-N-(1-(5-(N-tert-butylsulfamoyl)pyridin-2-ylamino)-1-oxo-3-phenylpropan-2-yl)-4-fluorobenzamide], which IC50 is on record?
A: < 0.05 µM

Q: Which IC50 does the source give for O=C(N[C@@H](Cc1ccccc1)C(=O)Nc1ccc(S(=O)(=O)NC2CCC2)cc1)c1ccc(F)cc1 [Compound I-7, (S)-N-(1-(4-(N-cyclobutylsulfamoyl)phenylamino)-1-oxo-3-phenylpropan-2-yl)-4-fluorobenzamide] here?
A: < 0.05 µM

Q: How did the IC50 turn out when CC(C)(C)NS(=O)(=O)c1ccc(NC(=O)[C@H](Cc2ccccc2)N2Cc3ccccc3C2=O)cc1 [Compound I-69, (S)-N-(4-(N-tert-butylsulfamoyl)phenyl)-2-(1-oxoisoindolin-2-yl)-3-phenylpropanamide] was run?
A: 1 to 10 µM

Q: Which IC50 does the source give for O=C(N[C@@H](Cc1ccccc1)C(=O)Nc1ccc(S(=O)(=O)NC2CC2)cc1)c1ccc(F)cc1 [Compound I-6, (S)-N-(1-(4-(N-cyclopropylsulfamoyl)phenylamino)-1-oxo-3-phenylpropan-2-yl)-4-fluorobenzamide] here?
A: < 0.05 µM

biological target: recombinant USP30 (amino acids 57-517 of the human sequence) (Homo sapiens (Human), UniProt Q70CQ3); experiment: In vitro USP30 biochemical assay (Ubiquitin-Rhodamine); conditions: USP30 IC50 μM (avg), Ubiquitin-Rhodamine substrate 25 nM, 1.5 nM recombinant USP30
Sequence (Q70CQ3 57-517): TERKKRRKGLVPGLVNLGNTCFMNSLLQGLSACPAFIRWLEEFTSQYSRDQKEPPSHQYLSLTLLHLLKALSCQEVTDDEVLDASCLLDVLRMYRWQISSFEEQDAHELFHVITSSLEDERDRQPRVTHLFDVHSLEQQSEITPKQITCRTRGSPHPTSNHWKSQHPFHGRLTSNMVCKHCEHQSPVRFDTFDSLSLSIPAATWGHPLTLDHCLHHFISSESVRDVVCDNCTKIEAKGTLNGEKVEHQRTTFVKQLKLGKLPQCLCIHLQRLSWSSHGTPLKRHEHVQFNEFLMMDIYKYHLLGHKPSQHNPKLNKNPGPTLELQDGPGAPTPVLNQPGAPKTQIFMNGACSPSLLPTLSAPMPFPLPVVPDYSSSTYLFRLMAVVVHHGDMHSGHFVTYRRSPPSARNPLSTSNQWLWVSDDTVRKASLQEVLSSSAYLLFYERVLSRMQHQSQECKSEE

Q: With COCC(C)(C)NS(=O)(=O)c1ccc(NC(=O)[C@H](Cc2ccccc2)N(C)C(=O)c2ccc(F)cc2)cc1OC [Compound I-159, (S)-4-fluoro-N-(1-(3-methoxy-4-(N-(1-methoxy-2-methylpropan-2-yl)sulfamoyl)phenylamino)-1-oxo-3-phenylpropan-2-yl)-N-methylbenzamide] as the molecule, how does the IC50 read?
A: 1 to 10 µM
